The values below come from US5360794A, “Disubstituted and deoxy disubstituted derivatives of α-D-mannofuranosides and β-L-gulofuranosides having anti-inflammatory and anti-proliferative activity” (Medicarb Inc., priority 1992, dated 1994).

For assay [1], the system named is BUD-8 human skin fibroblast cells. Briefly: BUD-8 human cell line fibroblast proliferation assay. Format: cell-based. Particulars: estimated IC50, BUD-8 cells, 3 days, MTT. The source says: ii BUD-8 human cell line fibroblast proliferation assay.
The MLR assay measures the effects of a study compound on the activation and antigen presentation of T-lymphocytes, therefore determining immunomodulatory properties. The mouse spleen cell mitogen-induced blastogenesis and the BUD-8 human fibroblast proliferation assays measure the effects of the compounds of the present invention on cellular proliferation of cells involved in the pathogenesis of autoimmune diseases. These two assays are appropriate as screens to ascertain anti-inflammatory and/or autoimmune beneficial activity and are art accepted for such purposes.
The skin cell fibroblast line, BUD-8, was originally derived from the normal skin of a person and can now be obtained from the American Type Culture Collection, Rockville, Md. The concentration of the compounds which were used in this assay were: 1, 10, 30, 100, and 300 μM. The vehicle was used as the negative control. Test compounds were prepared in DMSO at a stock concentration of 300 mM. Appropriate dilutions were made in culture medium.
In this assay BUD-8 cells were collected, counted, and diluted to 2×10^4 cells/ml. 0.1 ml was plated per well to give 2×10^3 cells/well. The compounds of the present invention were diluted in culture medium to the appropriate concentrations. Aliquates of 100 μl were distributed to triplicate wells. Control wells with vehicle and wells with media were also run. After a three day incubation at 37° C. with 5% carbon dioxide, proliferation was measured by adding 20 μl of MTT (10 mg/ml in PBS) (3-[4,5-dimethyl thiazol-2-yl]-2,5-diphenyl-tetrazolium bromide) to each well. Plates were incubated for 4 hours at 37° C., after which 180 μl of 10% SDS in PBS were added. After an overnight incubation, the optical density (OD) of each well was read using a Molecular Devices microplate reader at 570-650 nm.
Duplicate cultures were also set up to measure viability. After 3 days of incubation, supernatants were assayed for lactate dehydrogenase (LDH) activity to determine the viability of the cells, which is an indication of the toxicity of the test article on the BUD-8 cells. 0.1 ml of supernatent was mixed with 0.1 ml of the LDH substrate mixture which contains 5.4×10^-2 M L(+) lactate, 6.6×10^-4 M 2-p-iodophenyl-3-p-nitrophenyl tetrazolium chloride, 2.8×10^-4 M phenazine methosulfate, 1.3×10^-3 M NAD, and 0.2M Tris buffer. pH 8.2. Plates were read immediately for 5 minutes at 490 nm using a Molecular Devices microplate reader.
The mean for each test article treated group was determined and compared to the mean of the control group. The percent change from the control was calculated, and the IC50 estimated. The criteria used to establish activity levels were:
Sixteen (16) test articles were assayed for their ability to inhibit fibroblast proliferation. The test article were added to BUD-8 cell cultures to give final concentrations of 1, 10, 30, 100, and 300 μM. The proliferation observed in the test article treated wells were compared to the DMSO control wells.

Assay [2] has as its system various tumor cell lines (leukemia, melanoma, lung cancer, colon cancer, renal cancer, ovarian cancer, brain cancer). Nature of the assay: Tumor cell line growth inhibition (average over lines of seven cancer types). The note with it: Log 10 values; average GI50 over tumor cell lines from seven cancer types; read-out: GI (μM) Log 10 values (Average GI50) (converted). Format: cell-based. The procedure: The compounds of the present invention were also tested against various tumor cell lines, derived from seven cancer types. These include leukemia, melanoma, lung cancer, colon cancer, renal cancer, ovarian cancer, and brain cancer. Most of the compounds have shown significant activity in various screens, particularly against colon cancer and melanoma.

Setting [3] is: Homo sapiens, Skin fibroblast, 72 h.

As for “n-Nonyloxypropyl 2,3-O-(1-methylethylidene)-6-deoxy-6-aminothylpyrrolidinyl-α-D-mannofuranoside [Compound 7]”, the IC50 in assay [1] is 105 µM.
For `CCCCCCCCCOCCCO[C@H]1O[C@H]([C@H](O)CNCCCCCCC)[C@@H]2OC(C)(C)O[C@H]12` [Compound 8, n-Nonyloxypropyl 2,3-(1-methylethylidene)-6-deoxy-6-aminoheptyl-α-D-mannofuranoside], in assay [1] (setting [3]), the IC50 is 16 µM. In addition, the GI50 in assay [2] is 2.29 µM.
As for `CCCCCCCCCOCCCO[C@H]1O[C@H]([C@@H](C)OCCN2CCCC2)[C@@H]2OC(C)(C)O[C@H]12` [Compound 12, n-Nonyloxypropyl 2,3-O-(1-methylethylidene)-6-deoxy-5-O-(N'-ethylpyrrolidinyl)-α-D-mannofuranoside], in assay [1] (setting [3]), the IC50 was 42 µM.
For `C[C@@H]([C@H]1O[C@H](OCCCc2ccccc2)[C@H]2OC(C)(C)O[C@H]21)N1CCCC1` [Compound 24, Phenylpropyl 5,6-dideoxy 2,3-O-(1-methylethylidene)-5-pyrrolidinyl-β-L-gulofuranoside], the IC50 in assay [1] (setting [3]) is 225 µM. Also, in assay [2], the GI50 was 95.5 µM.
The matching figures for `CCCCCCCCCOCCCO[C@H]1O[C@H]([C@@H](C)OCCCN(C)C)[C@@H]2OC(C)(C)O[C@H]12` [Compound 10, n-Nonyloxypropyl 2,3-O-(1-methylethylidene)-6-deoxy-5-O-(N,N-dimethylaminopropyl)-α-D-mannofuranoside]: 17 µM and 11.5 µM.
`CC1(C)O[C@@H]2[C@H](O1)[C@@H](OCCCc1ccccc1)O[C@@H]2[C@H](O)CN1CCCC1` [Compound 20, Phenylpropyl 6-deoxy 2,3-O-(1-methylethylidene)-6-pyrrolidinyl-α-D-mannofuranoside]: the IC50 in assay [1] (setting [3]) is > 300 µM. Further, the GI50 in assay [2] is 87.1 µM.
`CCCCCCCCCOCCCO[C@H]1O[C@H]([C@H](O)CN2CCCCC2)[C@@H]2OC(C)(C)O[C@H]12` [Compound 4, n-Nonyloxypropyl 2,3-O-(1-methylethylidene)-6-deoxy-6-piperidinyl-α-D-mannofuranoside]: the IC50 in assay [1] (setting [3]) was 35 µM.
`CC1(C)O[C@@H]2[C@H](O1)[C@@H](OCCCCN1CCCC1)O[C@@H]2[C@H](O)CO` [Compound 29, 4'-(1-Pyrrolidinyl)butyl 2,3-O-(1-methylethylidene)-α-D-mannofuranoside]: the IC50 in assay [1] (setting [3]) is 190 µM.
`C[C@@H](OCCN1CCCC1)[C@H]1O[C@H](OCCCc2ccccc2)[C@H]2OC(C)(C)O[C@H]21` [Compound 27, Phenylpropyl 6-deoxy 2,3-O-(1-methylethylidene)-5-O-(N'-ethylpyrrolidinyl)-α-D-mannofuranoside]: the IC50 in assay [1] (setting [3]) was 148 µM.
Turning to `C[C@@H](OCCCN(C)C)[C@H]1O[C@H](OCCCc2ccccc2)[C@H]2OC(C)(C)O[C@H]21` [Compound 26, Phenylpropyl 6-deoxy 2,3-O-(1-methylethylidene)-5-O-3'-(N'N'-dimethylamino-n-propyl)-α-D-mannofuranoside], in assay [1] (setting [3]), the IC50 is 65 µM. In addition, in assay [2], the GI50 was 58.9 µM.
As to `CCCCCCCCCOCCCO[C@H]1O[C@H]([C@H](O)CN2CCOCC2)[C@@H]2OC(C)(C)O[C@H]12` [Compound 5, n-Nonyloxypropyl 2,3-O-(1-methylethylidene)-6-deoxy-6-morpholinyl-α-D-mannofuranoside], the IC50 in assay [1] (setting [3]) is > 200 µM.
As to `CC1(C)O[C@@H]2[C@H](O1)[C@@H](OCCCc1ccccc1)O[C@@H]2[C@H](O)CNCCCN1CCCC1` [Compound 22, Phenylpropyl 6-deoxy 2,3-O-(1-methylethylidene)-6-aminopropylpyrrolidinyl-α-D-mannofuranoside], the IC50 in assay [1] (setting [3]) was 16 µM.
For the compound `CCCCCCCNC[C@@H](O)[C@H]1O[C@H](OCCCc2ccccc2)[C@H]2OC(C)(C)O[C@H]21` [Compound 21, Phenylpropyl 6-deoxy 2,3-O-(1-methylethylidene)-6-heptylamino-α-D-mannofuranoside], in assay [1] (setting [3]), the IC50 was 19 µM. Moreover, the GI50 in assay [2] was 7.41 µM.
For the compound `CCCCCCCCCOCCCO[C@H]1O[C@H]([C@H](O)CN2CCCCCC2)[C@@H]2OC(C)(C)O[C@H]12` [Compound 6, n-Nonyloxypropyl 2,3-O-(1-methylethylidene)-6-deoxy-6-hexamethyleneimino-α-D-mannofuranoside], the concentration for half-maximal inhibition (IC50) in assay [1] (setting [3]) was 38 µM.
As to `CCCCCCCCCOCCCO[C@H]1O[C@H]([C@H](O)CN2CCCC2)[C@@H]2OC(C)(C)O[C@H]12` [Compound 3, n-Nonyloxypropyl 2,3-O-(1-methylethylidene)-6-deoxy-pyrrolidinyl-α-D-mannofuranoside], the IC50 in assay [1] (setting [3]) was 18 µM. For the same compound, in assay [2], the GI50 was 9.12 µM.
On to `CCCCCCCCCOCCCO[C@H]1O[C@H]([C@H](C)N2CCCC2)[C@@H]2OC(C)(C)O[C@H]12` [Compound 15, n-Nonyloxypropyl 5,6-dideoxy-2,3-O-(1-methylethylidene)-5-pyrrolidinyl-β-L-gulofuranoside], for which the IC50 in assay [1] (setting [3]) is 170 µM.

The IC50 is the point on the concentration scale where inhibition reaches its midpoint. A word on the GI50: it is the concentration giving 50% growth inhibition.
